Experimental findings from patent US20230373952A1, “LACTAM COMPOUNDS AS Kv1.3 POTASSIUM SHAKER CHANNEL BLOCKERS” (D.E. Shaw Research, LLC, priority 2020, published 2023) are described below.

Molecules are shown by their SMILES. Bounds are passed on as bounds.

T1 sequence (P22001 whole entry): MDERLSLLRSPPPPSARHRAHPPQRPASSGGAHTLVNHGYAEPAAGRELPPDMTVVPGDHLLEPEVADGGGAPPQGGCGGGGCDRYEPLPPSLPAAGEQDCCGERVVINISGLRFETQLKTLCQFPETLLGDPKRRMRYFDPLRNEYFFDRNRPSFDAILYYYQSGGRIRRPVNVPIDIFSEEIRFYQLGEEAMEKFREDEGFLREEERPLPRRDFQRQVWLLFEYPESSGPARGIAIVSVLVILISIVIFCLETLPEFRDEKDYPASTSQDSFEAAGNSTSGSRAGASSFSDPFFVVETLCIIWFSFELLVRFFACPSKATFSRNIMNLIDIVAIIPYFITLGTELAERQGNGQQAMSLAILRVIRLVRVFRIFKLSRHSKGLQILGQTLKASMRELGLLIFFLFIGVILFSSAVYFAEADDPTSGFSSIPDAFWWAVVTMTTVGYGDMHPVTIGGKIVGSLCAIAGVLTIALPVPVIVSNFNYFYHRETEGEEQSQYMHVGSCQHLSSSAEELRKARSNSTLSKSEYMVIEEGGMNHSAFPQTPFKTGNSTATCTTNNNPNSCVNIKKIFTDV

One test has as its target T1, Kv1.3 potassium channel (Homo sapiens, UniProt P22001).
T1 construct: expressed in transfected cells
Put plainly: Kv1.3 potassium channel blocker activity, automated whole-cell patch clamp (Patchliner). The settings on record: CHO-K1 cells stably expressing Kv1.3; whole-cell current inhibition, Hill fit; read-out: Kv1.3 IC50. The class given is cell-based. The protocol: CHO-K1 cells stably expressing Kv1.3 were grown in DMEM containing 10% heat-inactivated FBS, 1 mM sodium pyruvate, 2 mM L-glutamine and G418 (500 μg/ml).
The currents were evoked by applying 100 ms depolarizing pulses from −90 mV (holding potential) to +40 mV were applied with 0.1 Hz frequency. […] 10-second breaks were used between pulse trains (see Table H below).
Passive leak currents were subtracted online using a P/4 procedure (HEKA Elektronik Dr. Schulze GmbH). […] Total compound incubation time before the next pulse train was not longer than 10 seconds. Peak current inhibition was observed during compound equilibration.
On the technique in general: Patch clamp records ionic current or voltage across a cell membrane.
By IC50 is commonly meant the concentration at which inhibition is half-maximal. Take `C[C@H]1[C@H](c2c(O)ccc(Cl)c2Cl)NC(=O)N1CCCO` (relative stereo) [Compound 101, (4S,5S)-rel-4-(2,3-dichloro-6-hydroxyphenyl)-1-(3-hydroxypropyl)-5-methylimidazolidin-2-one]: the concentration for half-maximal inhibition (IC50) was under 0.1 µM.
On the same count and under the same terms, the value for `O=C1CC(c2c(O)ccc(Cl)c2Cl)CCN1C1CCNC1` (single isomer, unassigned) [Compound 1, 4-(2,3-dichloro-6-hydroxyphenyl)-1-[pyrrolidin-3-yl]piperidin-2-one] was under 0.1 µM; that for `O=C1C[C@@H](c2c(O)ccc(Cl)c2Cl)CCN1[C@H]1CCNC1` (single isomer, unassigned) [Compound 2, 4-(2,3-dichloro-6-hydroxyphenyl)-1-[pyrrolidin-3-yl]piperidin-2-one] was under 0.1 µM; that for `O=C1C[C@H](c2c(O)ccc(Cl)c2Cl)CCN1[C@@H]1CCNC1` (single isomer, unassigned) [Compound 3, 4-(2,3-dichloro-6-hydroxyphenyl)-1-[pyrrolidin-3-yl]piperidin-2-one] was under 1 µM.
Still for that read-out and setting: the value for `O=C1C[C@@H](c2c(O)ccc(Cl)c2Cl)CCN1[C@@H]1CCNC1` (single isomer, unassigned) [Compound 4, 4-(2,3-dichloro-6-hydroxyphenyl)-1-[pyrrolidin-3-yl]piperidin-2-one] was under 1 µM; that for `O=C1CC[C@@H](c2c(O)ccc(Cl)c2Cl)CN1[C@@H]1CCNC1` (single isomer, unassigned) [Compound 5, 5-(2,3-dichloro-6-hydroxyphenyl)-1-[pyrrolidin-3-yl]piperidin-2-one] was under 0.1 µM; that for `O=C1CC[C@@H](c2c(O)ccc(Cl)c2Cl)CN1[C@H]1CCNC1` (single isomer, unassigned) [Compound 6, 5-(2,3-dichloro-6-hydroxyphenyl)-1-[pyrrolidin-3-yl]piperidin-2-one] was under 1 µM.
For the compound `O=C1CC[C@H](c2c(O)ccc(Cl)c2Cl)CN1[C@H]1CCNC1` (single isomer, unassigned) [Compound 7, 5-(2,3-dichloro-6-hydroxyphenyl)-1-[pyrrolidin-3-yl]piperidin-2-one], the IC50 was under 0.1 µM.
For `O=C1N[C@@H](c2c(O)ccc(Cl)c2Cl)CCN1[C@H]1CCNC1` (single isomer, unassigned) [Compound 8, 4-(2,3-dichloro-6-hydroxyphenyl)-1-[pyrrolidin-3-yl]-tetrahydropyrimidin-2(1H)-one], the IC50 was under 1 µM.
Take `O=C1N[C@@H](c2c(O)ccc(Cl)c2Cl)CCN1[C@@H]1CCNC1` (single isomer, unassigned) [Compound 9, 4-(2,3-dichloro-6-hydroxyphenyl)-1-[pyrrolidin-3-yl]-tetrahydropyrimidin-2(1H)-one]: the concentration for half-maximal inhibition (IC50) was under 1 µM.
For the compound `O=C1N[C@H](c2c(O)ccc(Cl)c2Cl)CCN1[C@H]1CCNC1` (single isomer, unassigned) [Compound 10, 4-(2,3-dichloro-6-hydroxyphenyl)-1-[pyrrolidin-3-yl]-tetrahydropyrimidin-2(1H)-one], the half-maximal inhibitory concentration (IC50) was under 1 µM.
On the same count and under the same terms, then `O=C1C[C@@H](c2c(O)ccc(Cl)c2Cl)CN1[C@H]1CCOC1` (single isomer, unassigned; isomer 1) [Compound 27], with under 1 µM; and `C[C@@H](O)CCN1C[C@H](c2c(O)ccc(Cl)c2Cl)CC1=O` (single isomer, unassigned; isomer 1) [Compound 47], with under 0.1 µM; and `C[C@H]1C(=O)N(C2CNC2)C[C@H]1c1c(O)ccc(Cl)c1Cl` (single isomer, unassigned; isomer 1) [Compound 87, 1-(azetidin-3-yl)-4-(2,3-dichloro-6-hydroxyphenyl)-3-methylpyrrolidin-2-one isomer 1], with under 1 µM.
For `O=C1CN[C@@H](c2c(O)ccc(Cl)c2Cl)CN1C1CNC1` (single isomer, unassigned; isomer 1) [Compound 97, 1-(azetidin-3-yl)-5-(2,3-dichloro-6-hydroxyphenyl)piperazin-2-one isomer 1], the IC50 was under 1 µM.
As to `O=C1C[C@@H](c2c(O)ccc(Cl)c2Cl)CN1C1CCOC1` (single isomer, unassigned; isomer 2) [Compound 28], the half-maximal inhibitory concentration (IC50) was under 1 µM.
In the case of `C[C@H](O)CCN1C[C@H](c2c(O)ccc(Cl)c2Cl)CC1=O` (single isomer, unassigned; isomer 2) [Compound 48], the half-inhibitory concentration (IC50) is under 0.1 µM.
Same read-out and setting: the value for `C[C@@H]1C(=O)N(C2CNC2)C[C@H]1c1c(O)ccc(Cl)c1Cl` (single isomer, unassigned; isomer 2) [Compound 88, 1-(azetidin-3-yl)-4-(2,3-dichloro-6-hydroxyphenyl)-3-methylpyrrolidin-2-one isomer 2] was under 10 µM; that for `O=C1CO[C@@H](c2c(O)ccc(Cl)c2Cl)CN1CCO` (single isomer, unassigned; isomer 2) [Compound 96, 6-(2,3-dichloro-6-hydroxyphenyl)-4-(2-hydroxyethyl)morpholin-3-one isomer 2] was under 30 µM.
In the case of `O=C1CN[C@H](c2c(O)ccc(Cl)c2Cl)CN1C1CNC1` (single isomer, unassigned; isomer 2) [Compound 98, 1-(azetidin-3-yl)-5-(2,3-dichloro-6-hydroxyphenyl)piperazin-2-one isomer 2], the 50% inhibitory concentration (IC50) was under 30 µM.
For the compound `C[C@H]1C(=O)N(C2CNC2)C[C@@H]1c1c(O)ccc(Cl)c1Cl` (single isomer, unassigned; isomer 3) [Compound 89, 1-(azetidin-3-yl)-4-(2,3-dichloro-6-hydroxyphenyl)-3-methylpyrrolidin-2-one isomer 3], the IC50 was under 10 µM.
Regarding `CC1[C@@H](c2c(O)ccc(Cl)c2Cl)CC(=O)N1C[C@H](O)CO` (stereo in doubt) [Compound 78, (4R,5R)-4-(2,3-dichloro-6-hydroxyphenyl)-1-[(2S)-2,3-dihydroxypropyl]-5-methylpyrrolidin-2-one], the IC50 is under 10 µM.
Regarding `CC1[C@@H](c2c(O)ccc(Cl)c2Cl)CC(=O)N1CCO` (stereo in doubt) [Compound 80, (4R,5R)-4-(2,3-dichloro-6-hydroxyphenyl)-1-(2-hydroxyethyl)-5-methylpyrrolidin-2-one], the IC50 is under 10 µM.
For the compound `O=C1C[C@@H](c2c(O)ccc(Cl)c2Cl)CN1C(CO)CO` [Compound 18, (4S)-4-(2,3-dichloro-6-hydroxyphenyl)-1-(1,3-dihydroxypropan-2-yl)pyrrolidin-2-one], the half-maximal inhibitory concentration (IC50) is under 1 µM.
Turning to `CC(C)(O)CCN1C[C@H](c2c(O)ccc(Cl)c2Cl)CC1=O` [Compound 45, (S)-4-(2,3-dichloro-6-hydroxyphenyl)-1-(3-hydroxy-3-methylbutyl)pyrrolidin-2-one], the IC50 is under 1 µM.
As to `N[C@@H](CO)CN1C[C@H](c2c(O)ccc(Cl)c2Cl)CC1=O` [Compound 49, (4S)-1-[(2R)-2-amino-3-hydroxypropyl]-4-(2,3-dichloro-6-hydroxyphenyl)pyrrolidin-2-one], the concentration for half-maximal inhibition (IC50) was under 0.1 µM.
Same read-out and setting: then `N[C@H](CO)CN1C[C@H](c2c(O)ccc(Cl)c2Cl)CC1=O` [Compound 50, (4S)-1-[(2S)-2-amino-3-hydroxypropyl]-4-(2,3-dichloro-6-hydroxyphenyl)pyrrolidin-2-one], with under 0.1 µM; and `Cn1cnc(N2C[C@H](c3c(O)ccc(Cl)c3Cl)CC2=O)c1` [Compound 59, (S)-4-(2,3-dichloro-6-hydroxyphenyl)-1-(1-methyl-1H-imidazol-4-yl)pyrrolidin-2-one], with under 1 µM; and `Cc1cc(N2C[C@H](c3c(O)ccc(Cl)c3Cl)CC2=O)sn1` [Compound 60, (S)-4-(2,3-dichloro-6-hydroxyphenyl)-1-(3-methylisothiazol-5-yl)pyrrolidin-2-one], with under 1 µM.
For `O=C1C[C@@H](c2c(O)ccc(Cl)c2Cl)CN1c1cccnc1` [Compound 63, (S)-4-(2,3-dichloro-6-hydroxyphenyl)-1-(pyridin-3-yl)pyrrolidin-2-one], the half-maximal inhibitory concentration (IC50) is under 1 µM.
Still for that read-out and setting: then `O=C1C[C@@H](c2c(O)ccc(Cl)c2Cl)CN1c1cnn(CCO)c1` [Compound 69, (S)-4-(2,3-dichloro-6-hydroxyphenyl)-1-(1-(2-hydroxyethyl)-1H-pyrazol-4-yl)pyrrolidin-2-one], with under 0.1 µM.
As to `Cc1cc(N2C[C@H](c3c(O)ccc(Cl)c3Cl)CC2=O)no1` [Compound 73, (S)-4-(2,3-dichloro-6-hydroxyphenyl)-1-(5-methylisoxazol-3-yl)pyrrolidin-2-one], the half-maximal inhibitory concentration (IC50) is under 10 µM.
Regarding `C[C@H]1[C@@H](c2c(O)ccc(Cl)c2Cl)CC(=O)N1C1CNC1` [Compound 83, (4R,5S)-1-(azetidin-3-yl)-4-(2,3-dichloro-6-hydroxyphenyl)-5-methylpyrrolidin-2-one], the IC50 is under 10 µM.
As to `C[C@@H]1[C@H](c2c(O)ccc(Cl)c2Cl)CC(=O)N1CCO` [Compound 84, (4S,5R)-4-(2,3-dichloro-6-hydroxyphenyl)-1-(2-hydroxyethyl)-5-methylpyrrolidin-2-one], the IC50 is under 1 µM.
As for `C[C@H]1[C@@H](c2c(O)ccc(Cl)c2Cl)CC(=O)N1CCO` [Compound 85, (4R,5S)-4-(2,3-dichloro-6-hydroxyphenyl)-1-(2-hydroxyethyl)-5-methylpyrrolidin-2-one], the IC50 is under 30 µM.
In the case of `N[C@@H]1C(=O)N(C2CNC2)C[C@H]1c1c(O)ccc(Cl)c1Cl` [Compound 91, (3S,4R)-3-amino-1-(azetidin-3-yl)-4-(2,3-dichloro-6-hydroxyphenyl)pyrrolidin-2-one], the IC50 was under 10 µM.

The next test deals with hERG channel (Homo sapiens, UniProt Q12809). The experiment in a line: cell-based.
hERG channel, sequence (Q12809 whole entry): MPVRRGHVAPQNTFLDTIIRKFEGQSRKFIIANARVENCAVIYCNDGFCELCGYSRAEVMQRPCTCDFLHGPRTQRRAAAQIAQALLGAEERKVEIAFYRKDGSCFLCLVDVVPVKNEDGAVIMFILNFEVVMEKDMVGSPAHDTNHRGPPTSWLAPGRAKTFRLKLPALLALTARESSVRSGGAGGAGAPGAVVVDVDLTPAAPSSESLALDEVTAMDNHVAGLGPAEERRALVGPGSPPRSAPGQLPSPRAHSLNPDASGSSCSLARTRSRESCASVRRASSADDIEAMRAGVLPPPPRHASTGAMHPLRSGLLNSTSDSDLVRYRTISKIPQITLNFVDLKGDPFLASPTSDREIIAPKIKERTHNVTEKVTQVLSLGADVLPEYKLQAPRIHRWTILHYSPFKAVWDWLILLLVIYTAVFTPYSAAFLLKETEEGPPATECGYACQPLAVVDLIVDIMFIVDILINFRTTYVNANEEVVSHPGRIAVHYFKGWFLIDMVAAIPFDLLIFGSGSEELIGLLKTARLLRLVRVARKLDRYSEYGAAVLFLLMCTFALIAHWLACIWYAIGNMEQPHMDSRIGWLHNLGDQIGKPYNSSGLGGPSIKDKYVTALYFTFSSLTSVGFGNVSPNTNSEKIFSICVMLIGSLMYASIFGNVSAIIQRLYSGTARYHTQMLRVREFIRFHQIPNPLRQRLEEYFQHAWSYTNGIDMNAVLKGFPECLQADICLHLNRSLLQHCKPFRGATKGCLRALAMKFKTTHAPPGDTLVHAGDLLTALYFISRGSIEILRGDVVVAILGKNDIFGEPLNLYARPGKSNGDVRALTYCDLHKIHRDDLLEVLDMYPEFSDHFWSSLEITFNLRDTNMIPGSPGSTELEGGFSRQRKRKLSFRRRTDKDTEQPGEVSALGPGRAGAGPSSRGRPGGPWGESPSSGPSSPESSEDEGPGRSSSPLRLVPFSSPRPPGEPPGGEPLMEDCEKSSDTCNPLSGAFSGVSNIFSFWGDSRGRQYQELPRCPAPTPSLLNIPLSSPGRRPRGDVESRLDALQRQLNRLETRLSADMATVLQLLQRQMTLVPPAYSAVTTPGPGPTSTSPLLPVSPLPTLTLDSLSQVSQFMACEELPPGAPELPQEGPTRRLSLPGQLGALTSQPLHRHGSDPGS
Details: not given
In the case of `C[C@H]1[C@H](c2c(O)ccc(Cl)c2Cl)NC(=O)N1CCCO` (relative stereo) [Compound 101, (4S,5S)-rel-4-(2,3-dichloro-6-hydroxyphenyl)-1-(3-hydroxypropyl)-5-methylimidazolidin-2-one], the 50% inhibitory concentration (IC50) is over 30 µM.
Still for that read-out and setting: the value for `O=C1CC(c2c(O)ccc(Cl)c2Cl)CCN1C1CCNC1` (single isomer, unassigned) [Compound 1, 4-(2,3-dichloro-6-hydroxyphenyl)-1-[pyrrolidin-3-yl]piperidin-2-one] was over 30 µM.
On to `O=C1C[C@@H](c2c(O)ccc(Cl)c2Cl)CCN1[C@H]1CCNC1` (single isomer, unassigned) [Compound 2, 4-(2,3-dichloro-6-hydroxyphenyl)-1-[pyrrolidin-3-yl]piperidin-2-one], for which the IC50 is over 30 µM.
`O=C1CC[C@@H](c2c(O)ccc(Cl)c2Cl)CN1[C@@H]1CCNC1` (single isomer, unassigned) [Compound 5, 5-(2,3-dichloro-6-hydroxyphenyl)-1-[pyrrolidin-3-yl]piperidin-2-one] yielded an IC50 of over 30 µM.
As for `O=C1CC[C@H](c2c(O)ccc(Cl)c2Cl)CN1[C@H]1CCNC1` (single isomer, unassigned) [Compound 7, 5-(2,3-dichloro-6-hydroxyphenyl)-1-[pyrrolidin-3-yl]piperidin-2-one], the concentration for half-maximal inhibition (IC50) is over 30 µM.
Regarding `O=C1N[C@@H](c2c(O)ccc(Cl)c2Cl)CCN1[C@@H]1CCNC1` (single isomer, unassigned) [Compound 9, 4-(2,3-dichloro-6-hydroxyphenyl)-1-[pyrrolidin-3-yl]-tetrahydropyrimidin-2(1H)-one], the half-inhibitory concentration (IC50) was over 10 µM.
